Data on 1 molecule can be found in US8552002B2 (Novartis AG, priority 2004, dated 2013).

The IC50 is the midpoint of a concentration-inhibition curve. In general, inhibition refers to the relative decrease from the control value, in per cent.

Assay [1] has as its target T1, FGFR35 (Homo sapiens, UniProt P22607). Nature of the assay: FGFR35 (enzymatic assay), HTRF. The format is biochemical. Also noted: purchased Upstate. As to conditions: purified FGFR35, 3 μM ATP; read-out: IC50 for the FGFR35 enzyme assay. The method, then: Kinase activity assay with purified FGFR35 (Upstate) is carried out in a final volume of 10 μL containing 0.25 μg/mL of enzyme in kinase buffer (30 mM Tris-HCl pH7.5, 15 mM MgCl2, 4.5 mM MnCl2, 15 μM Na3VO4 and 50 μg/mL BSA), and substrates (5 μg/mL biotin-poly-EY(Glu, Tyr) (CIS-US, Inc.) and 3 μM ATP). Two solutions are made: the first solution of 5 μl contains the FGFR35 enzyme in kinase buffer was first dispensed into 384—format ProxiPlate® (Perkin-Elmer) followed by adding 50 nL of compounds dissolved in DMSO, then 5 μl of second solution contains the substrate (poly-EY) and ATP in kinase buffer was added to each wells. The reactions are incubated at room temperature for one hour, stopped by adding 10 μL of HTRF detection mixture, which contains 30 mM Tris-HCl pH7.5, 0.5 M KF, 50 mM ETDA, 0.2 mg/mL BSA, 15 μg/mL streptavidin-XL665 (CIS-US, Inc.) and 150 ng/mL cryptate conjugated anti-phosphotyrosine antibody (CIS-US, Inc.). After one hour of room temperature incubation to allow for streptavidin-biotin interaction, time resolved florescent signals are read on Analyst GT (Molecular Devices Corp.). IC50 values are calculated by linear regression analysis of the percentage inhibition of each compound at 12 concentrations (1:3 dilution from 50 μM to 0.28 nM).
Target sequence in this assay (P22607 23-806): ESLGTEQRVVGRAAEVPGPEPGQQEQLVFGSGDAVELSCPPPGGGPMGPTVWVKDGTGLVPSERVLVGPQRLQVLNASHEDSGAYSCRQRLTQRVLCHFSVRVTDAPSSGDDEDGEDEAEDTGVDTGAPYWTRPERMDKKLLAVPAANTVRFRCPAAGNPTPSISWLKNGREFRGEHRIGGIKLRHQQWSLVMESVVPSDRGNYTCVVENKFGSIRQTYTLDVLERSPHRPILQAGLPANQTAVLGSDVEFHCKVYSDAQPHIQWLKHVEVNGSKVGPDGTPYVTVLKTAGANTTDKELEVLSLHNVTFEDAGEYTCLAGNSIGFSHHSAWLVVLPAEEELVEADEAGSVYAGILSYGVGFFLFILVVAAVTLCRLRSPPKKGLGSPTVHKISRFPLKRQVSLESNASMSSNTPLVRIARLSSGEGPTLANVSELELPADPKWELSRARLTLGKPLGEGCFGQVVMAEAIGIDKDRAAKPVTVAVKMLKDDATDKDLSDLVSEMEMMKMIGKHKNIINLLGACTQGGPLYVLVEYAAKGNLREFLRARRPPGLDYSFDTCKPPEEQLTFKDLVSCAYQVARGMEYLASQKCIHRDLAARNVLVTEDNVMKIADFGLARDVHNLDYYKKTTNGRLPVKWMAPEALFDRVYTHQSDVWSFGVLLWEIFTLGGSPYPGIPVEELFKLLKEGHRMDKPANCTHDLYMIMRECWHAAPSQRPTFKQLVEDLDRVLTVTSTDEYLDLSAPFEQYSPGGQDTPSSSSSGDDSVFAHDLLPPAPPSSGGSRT

Assay [2] addresses T1, FGFR35. Briefly: FGFR35 (cellular assay), proliferation of Ba/F3-TEL-FGFR35 cells. Also noted: fused on or other part: N-terminal part of TEL (ETV6), which acts as the oligomerising partner; it is fused to the part of FGFR3 that carries the kinase; P41212 (Transcription factor ETV6). Conditions: 48 hours, read-out: IC50 for the FGFR35 cellular assay. It is filed as cell-based. The protocol:
Compounds of the invention are tested for their ability to inhibit transformed Ba/F3-TEL-FGFR35 cells proliferation, which is depended on FGFR35 cellular kinase activity. Ba/F3-TEL-FGFR35 are cultured up to 800,000 cells/mL in suspension, with RPMI 1640 supplemented with 10% fetal bovine serum as the culture medium. Cells are dispensed into 384-well format plate at 5000 cell/well in 50 μL culture medium. Compounds of the invention are dissolved and diluted in dimethylsulfoxide (DMSO). Twelve points 1:3 serial dilutions are made into DMSO to create concentrations gradient ranging typically from 10 mM to 0.05 μM. Cells are added with 50 nL of diluted compounds and incubated for 48 hours in cell culture incubator. AlamarBlue® (TREK Diagnostic Systems), which can be used to monitor the reducing environment created by proliferating cells, are added to cells at final concentration of 10%. After additional four hours of incubation in a 37° C. cell culture incubator, fluorescence signals from reduced AlamarBlue® (Excitation at 530 nm, Emission at 580 nm) are quantified on Analyst GT (Molecular Devices Corp.). IC50 values are calculated by linear regression analysis of the percentage inhibition of each compound at 12 concentrations.
Target sequence in this assay (P22607 472-761 limits assumed, stated change not applied): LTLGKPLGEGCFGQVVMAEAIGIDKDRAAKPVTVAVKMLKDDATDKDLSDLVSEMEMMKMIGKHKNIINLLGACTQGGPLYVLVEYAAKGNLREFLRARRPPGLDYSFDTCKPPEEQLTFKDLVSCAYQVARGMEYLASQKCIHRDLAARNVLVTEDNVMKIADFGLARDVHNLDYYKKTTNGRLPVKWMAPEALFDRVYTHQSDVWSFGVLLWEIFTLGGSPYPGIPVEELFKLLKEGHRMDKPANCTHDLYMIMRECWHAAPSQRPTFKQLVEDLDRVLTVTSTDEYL

Assay [3] concerns the target PDGFRβ (Homo sapiens, UniProt P09619). Nature of the assay: Inhibition of PDGFRβ. It is filed as biochemical. The protocol: Compounds selectively inhibiting the proliferation of these BCR-Abl transformed cells are tested for anti-proliferative activity on Ba/F3 cells expressing either wild type or the mutant forms of Bcr-abl. In addition, compounds are assayed to measure their capacity to inhibit FGFR35 (in an enzyme and cellular assay), FLT3, PDGFRβ, trkB, c-SRC, BMX, SGK, Tie2, Lck, JNK2α2, MKK4, c-RAF, MKK6, SAPK2α and SAPK2β kinases.

Assay [4] deals with T1, FGFR35. Briefly: Upstate KinaseProfiler radio-enzymatic filter binding assay. The format is biochemical. Also noted: purchased Upstate. As to conditions: read-out: percentage inhibition of FGFR35. The protocol: Compounds of the invention are assessed for their ability to inhibit individual members of a panel of kinases (a partial, non-limiting list of kinases includes: Abl, BCR-Abl, BMX, FGFR35, Lck, JNK1, JNK2, CSK, RAF, MKK6 and P38). The compounds are tested in duplicates at a final concentration of 10 μM following this generic protocol. Note that the kinase buffer composition and the substrates vary for the different kinases included in the “Upstate KinaseProfiler™” panel. Kinase buffer (2.5 μL, 10×—containing MnCl2 when required), active kinase (0.001-0.01 Units; 2.5 μL), specific or Poly(Glu4-Tyr) peptide (5-500 μM or 0.01 mg/ml) in kinase buffer and […] are mixed in an eppendorf on ice. A Mg/ATP mix (10 μL; 67.5 (or 33.75) mM MgCl2, 450 (or 225) μM ATP and 1 μCi/μl [γ-^32P]-ATP (3000 Ci/mmol)) is added and the reaction is incubated at about 30° C. for about 10 minutes. […] The assay squares are transferred to a scintillation vial, 5 ml scintillation cocktail are added and ^32P incorporation (cpm) to the peptide substrate is quantified with a Beckman scintillation counter. Percentage inhibition is calculated for each reaction.
Target sequence in this assay (P22607 23-806): as the sequence (P22607 23-806) above

Structures are written as SMILES.

Chain of PDGFRβ (P09619 33-1106, species assumed): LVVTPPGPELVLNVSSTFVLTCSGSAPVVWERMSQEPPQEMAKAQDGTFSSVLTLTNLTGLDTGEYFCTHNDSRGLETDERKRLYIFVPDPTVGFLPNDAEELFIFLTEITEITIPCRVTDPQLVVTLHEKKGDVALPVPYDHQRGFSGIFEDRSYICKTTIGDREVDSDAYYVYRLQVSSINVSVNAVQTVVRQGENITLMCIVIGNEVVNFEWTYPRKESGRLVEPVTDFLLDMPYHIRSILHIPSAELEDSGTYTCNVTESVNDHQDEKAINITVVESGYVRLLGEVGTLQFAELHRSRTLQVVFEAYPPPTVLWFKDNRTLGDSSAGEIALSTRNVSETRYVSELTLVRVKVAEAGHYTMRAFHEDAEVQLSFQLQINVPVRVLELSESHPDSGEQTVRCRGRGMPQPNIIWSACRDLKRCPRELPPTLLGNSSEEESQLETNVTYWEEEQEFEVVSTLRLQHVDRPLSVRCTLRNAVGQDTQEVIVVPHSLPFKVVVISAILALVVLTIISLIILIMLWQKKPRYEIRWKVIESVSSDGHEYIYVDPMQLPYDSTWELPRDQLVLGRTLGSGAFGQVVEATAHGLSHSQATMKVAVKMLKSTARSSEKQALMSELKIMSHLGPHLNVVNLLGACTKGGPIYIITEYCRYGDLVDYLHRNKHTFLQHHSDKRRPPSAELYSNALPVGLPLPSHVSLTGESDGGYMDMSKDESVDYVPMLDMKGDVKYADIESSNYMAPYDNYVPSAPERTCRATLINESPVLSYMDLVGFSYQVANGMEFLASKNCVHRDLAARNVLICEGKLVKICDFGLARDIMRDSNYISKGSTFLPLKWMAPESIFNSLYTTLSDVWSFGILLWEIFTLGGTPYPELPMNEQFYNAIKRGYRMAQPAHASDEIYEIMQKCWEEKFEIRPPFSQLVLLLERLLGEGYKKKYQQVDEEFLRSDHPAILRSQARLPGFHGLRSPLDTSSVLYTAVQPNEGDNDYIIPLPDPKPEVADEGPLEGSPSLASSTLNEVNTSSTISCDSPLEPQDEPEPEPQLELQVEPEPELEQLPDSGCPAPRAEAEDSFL

`Cc1ccc(NC(=O)c2cccc(C(F)(F)F)c2)cc1NC(=O)N(CCCN1CCCC1=O)c1cc(N)ncn1` [Example 215, N-(3-{3-(6-Amino-pyrimidin-4-yl)-3-[3-(2-oxo-pyrrolidin-1-yl)-propyl]-ureido}-4-methyl-phenyl)-3-trifluoromethyl-benzamide]: the IC50 came to 16 nM in assay [1] and 2 nM in assay [3]. Further, the GI50 in assay [2] is 15 nM. In addition, the inhibition at 10 µM in assay [4] was 99%.
